We go through 21 compounds from patent publication US20120015907A1, “Furopyridine compounds and uses thereof” (NOVARTIS AG, priority 2010, published 2012).

Where “and” joins values, the source holds several entries; their conditions need not be identical. Equal entries are not always repeated.

In this test the target is T1, HCV polymerase (Hepatitis C virus genotype 1b, UniProt Q9WMX2).
T1 construct: (His)6 (C)
The test can be described thus: biochemical. As to conditions: polymerase assay of Biological Example 1; read-out: NS5B polymerase IC50. An excerpt:
A number of assays have been published to assess these activities. A general method that assesses the gross increase of HCV virus in culture was disclosed in U.S. Pat. No. 5,738,985 to Miles et al. In vitro assays have been reported in Ferrari et al. Jnl. of Vir., 73:1649-1654, 1999; Ishii et al., Hepatology, 29:1227-1235, 1999; Lohmann et al., Jnl of Bio. Chem., 274:10807-10815, 1999; and Yamashita et al., Jnl. of Bio. Chem., 273:15479-15486, 1998.
WO 97/12033, filed on Sep. 27, 1996, by Emory University, listing C. Hagedorn and A. Reinoldus as inventors, which claims priority to U.S. Provisional Patent Application Ser. No. 60/004,383, filed on September 1995, described an HCV polymerase assay that can be used to evaluate the activity of the of the compounds described herein. Another HCV polymerase assay has been reported by Bartholomeusz, et al., Hepatitis C Virus (HCV) RNA polymerase assay using cloned HCV non-structural proteins; Antiviral Therapy 1996:1(Supp 4) 18-24.
Broadly, the IC50 is the midpoint of a concentration-inhibition curve. As for `CCOC(=O)/C=C/CCCN(c1nc2oc(-c3ccc(C)cc3)c(C(=O)NC)c2cc1C1CC1)S(C)(=O)=O` [Example 44.1, (E)-ethyl 6-(N-(5-cyclopropyl-3-(methylcarbamoyl)-2-p-tolylfuro[2,3-b]pyridin-6-yl)methylsulfonamido)hex-2-enoate], the IC50 worked out at 5 nM. Regarding `CNC(=O)c1c(-c2ccc(C)cc2)oc2nc(N(CCC[C@H](C)C(=O)OCOP(=O)(OCc3ccccc3)OCc3ccccc3)S(C)(=O)=O)c(C3CC3)cc12` [Example 49.1, (S)-((bis(benzyloxy)phosphoryl)oxy)methyl 5-(N-(5-cyclopropyl-3-(methylcarbamoyl)-2-(p-tolyl)furo[2,3-b]pyridin-6-yl)methylsulfonamido)-2-methylpentanoate], the IC50 came out at 6 nM.

In the case of `CNC(=O)c1c(-c2ccc(F)cc2)oc2nc(N(C)S(C)(=O)=O)c(CCCS(C)(=O)=O)cc12` [Example 4.94, 2-(4-fluorophenyl)-N-methyl-6-(N-methylmethylsulfonamido)-5-(3-(methylsulfonyl)propyl)furo[2,3-b]pyridine-3-carboxamide], the IC50 came out at 208 nM. As for `CCCc1cc2c(C(=O)NC)c(-c3ccc(F)cc3)oc2nc1N(C)S(C)(=O)=O` [Example 4.96, 2-(4-fluorophenyl)-N-methyl-6-(N-methylmethylsulfonamido)-5-propylfuro[2,3-b]pyridine-3-carboxamide], the IC50 worked out at 78 nM. The same measure for `CCc1cc2c(C(=O)NC)c(-c3ccc(F)cc3)oc2nc1N(CCOc1ccc(C(=O)OC)cc1)S(C)(=O)=O` [Example 22.7, methyl 4-(2-(N-(5-ethyl-2-(4-fluorophenyl)-3-(methylcarbamoyl)furo[2,3-b]pyridin-6-yl)methylsulfonamido)ethoxy)benzoate]: 53 nM; for `CCc1cc2c(C(=O)NC)c(-c3ccc(F)cc3)oc2nc1N(CCCS(=O)(=O)C1CC1)S(C)(=O)=O` [Example 23.991, 6-(N-(3-(cyclopropylsulfonyl)propyl)methylsulfonamido)-5-ethyl-2-(4-fluorophenyl)-N-methylfuro[2,3-b]pyridine-3-carboxamide]: 61 nM. The same measure for `CCc1cc2c(C(=O)NC)c(-c3ccc(F)cc3)oc2nc1N(CCCN(C)S(C)(=O)=O)S(C)(=O)=O` [Example 23.3, 5-ethyl-2-(4-fluorophenyl)-N-methyl-6-(N-(3-(N-methylmethylsulfonamido)propyl)methylsulfonamido) furo[2,3-b]pyridine-3-carboxamide]: 58 nM; for `CNC(=O)c1c(-c2ccc(C)cc2)oc2nc(N(CCCC3(C(=O)O)CC3)S(C)(=O)=O)c(C3CC3)cc12` [Example 29.8, 1-(3-(N-(5-cyclopropyl-3-(methylcarbamoyl)-2-p-tolylfuro[2,3-b]pyridin-6-yl)mcthylsulfonamido)propyl) cyclopropanecarboxylic acid]: 2 nM; for `CNC(=O)c1c(-c2ccc(F)cc2)oc2nc(N(CCc3ccccc3OC)S(C)(=O)=O)c(I)cc12` [Example 18.6, 2-(4-fluorophenyl)-5-iodo-6-(N-(2-methoxyphenethyl)methylsulfonamido)-N-methylfuro[2,3-b]pyridine-3-carboxamide]: 573 nM. To `CNC(=O)c1c(-c2ccc(C)cc2)oc2nc(N(CCCC(CC(=O)O)OCCOC)S(C)(=O)=O)c(C3CC3)cc12` (stereo not drawn) [Example 29.999996, 6-(N-(5-cyclopropyl-3-(methylcarbamoyl)-2-p-tolylfuro[2,3-b]pyridin-6-yl)methylsulfonamido)-3-(2-methoxyethoxy) hexanoic acid] belongs 12 nM; to `CNC(=O)c1c(-c2ccc(F)cc2)oc2nc3c(cc12)CCCCN3S(C)(=O)=O` [Example 39, 2-(4-Fluoro-phenyl)-9-methanesulfonyl-6,7,8,9-tetrahydro-5H-1-oxa-9,10-diaza-cyclohepta[f]indene-3-carboxylic acid methylamide], 161 nM.

Take `CNC(=O)c1c(-c2ccc(C)cc2)oc2nc(N(CCCC(C#N)CC(=O)O)S(C)(=O)=O)c(C3CC3)cc12` (stereo not drawn) [Example 29.999995, 3-cyano-6-(N-(5-cyclopropyl-3-(methylcarbamoyl)-2-p-tolylfuro[2,3-b]pyridin-6-yl)methylsulfonamido) hexanoic acid]: the IC50 was found to be 3 nM. The same measure for `CCc1ccc(-c2oc3nc(N(CCCC[C@@H](COC)C(=O)O)S(C)(=O)=O)c(C4CC4)cc3c2C(=O)NC)cc1` [Example 47.4, (S)-6-(N-(5-Cyclopropyl-2-(4-ethylphenyl)-3-(methylcarbamoyl)furo[2,3-b]pyridin-6-yl)methylsulfonamido)-2-(methoxymethyl)hexanoic acid]: 3 nM. To `CNC(=O)c1c(-c2ccc(F)cc2)oc2nc(N(CCCC(O)CO)S(C)(=O)=O)c(I)cc12` (stereo not drawn) [Example 18.93, 6-(N-(4,5-dihydroxypentyl)methylsulfonamido)-2-(4-fluorophenyl)-5-iodo-N-methylfuro[2,3-b]pyridine-3-carboxamide] belongs 108 nM. To `CNC(=O)c1c(-c2ccc(C)cc2)oc2nc(N(CCC3CCCC3C(=O)O)S(C)(=O)=O)c(I)cc12` (stereo not drawn) [Example 18.999, 2-(2-(N-(5-iodo-3-(methylcarbamoyl)-2-p-tolylfuro[2,3-b]pyridin-6-yl)methylsulfonamido)ethyl)cyclopentanecarboxylic acid] belongs 4 nM; to `CNC(=O)c1c(-c2ccc(C)cc2)oc2nc(N(CCCCCBr)S(C)(=O)=O)c(C3CC3)cc12` [Example 29.998, 6-(N-(5-bromopentyl)methylsulfonamido)-5-cyclopropyl-N-methyl-2-p-tolylfuro[2,3-b]pyridine-3-carboxamide], 3 nM.

As for `CCc1cc2c(C(=O)NC)c(-c3ccc(F)cc3)oc2nc1N(CCN1CCN(C(=O)OC(C)(C)C)CC1)S(C)(=O)=O` [Example 21.998, tert-butyl 4-(2-(N-(5-ethyl-2-(4-fluorophenyl)-3-(methylcarbamoyl)furo[2,3-b]pyridin-6-yl)methylsulfonamido)ethyl)piperazine-1-carboxylate], the IC50 came out at 428 nM. On to `CNC(=O)c1c(-c2ccc(F)cc2)oc2nc(N(CCCn3ccnc3)S(C)(=O)=O)c(I)cc12` [Example 23.5, 6-(N-(3-(1H-imidazol-1-yl)propyl)methylsulfonamido)-2-(4-fluorophenyl)-5-iodo-N-methylfuro[2,3-b]pyridine-3-carboxamide], for which the IC50 was 151 nM and 35 nM. The same measure for `CCc1cc2c(C(=O)NC)c(-c3ccc(F)cc3)oc2nc1N(CC1CCOCC1)S(C)(=O)=O` [Example 21.994, 5-ethyl-2-(4-fluorophenyl)-N-methyl-6-(N-((tetrahydro-2H-pyran-4-yl)methyl)methylsulfonamido)furo[2,3-b]pyridine-3-carboxamide]: 147 nM; for `CNC(=O)c1c(-c2ccc(F)cc2)oc2nc(N(CCO)S(C)(=O)=O)c(I)cc12` [Example 18.1, 2-(4-fluorophenyl)-6-(N-(2-hydroxyethyl)methylsulfonamido)-5-iodo-N-methylfuro[2,3-b]pyridine-3-carboxamide]: 451 nM; for `CCc1cc2c(C(=O)NC)c(-c3ccc(F)cc3)oc2nc1N(CCCC(C)(C)O)S(C)(=O)=O` [Example 22.94, 5-ethyl-2-(4-fluorophenyl)-6-(N-(4-hydroxy-4-methylpentyl)methylsulfonamido)-N-methylfuro[2,3-b]pyridine-3-carboxamide]: 31 nM.
